In assay [1] the test system is H929 multiple myeloma tumour line. The experiment in a line: In vitro cytotoxicity, Microculture Tetrazolium Assay. It counts as cell-based. Particulars: H929 cells, 48 hours exposure, MTT, read-out: IC50 (μM) MTT H929. How it is done:
The cytotoxicity studies were carried out on the H929 multiple myeloma tumour line.
The cells are distributed onto microplates and exposed to the test compounds for 48 hours.

For assay [2], the target named is Mcl-1 protein (UniProtKB primary accession number: Q07820) (Homo sapiens, UniProt Q07820). The assay is described as follows: Inhibition of Mcl-1 by fluorescence polarisation, Method 1. It counts as binding. The settings on record: for IC50: fluorescence polarisation, Method 1, or Method 2, read-out: IC50 (M) Mcl-1 FP. An outline of the steps:
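An 11-point DMSO dilution of compound is mixed with buffer (10 mM HEPES, 150 mM NaCl, 0.05% Tween 20, pH 7.4) carrying 1 nM fluorescein-labelled ligand and 5 nM Mcl-1, final concentrations. Displacement is monitored by fluorescence polarisation.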
A general note: Fluorescence polarisation rises when a labelled molecule tumbles more slowly, as on binding a larger partner.

Like-named read-outs stand apart in the source and are kept apart here.

For orientation: IC50 means the concentration at which inhibition is half-maximal.

Mcl-1 protein, sequence (Q07820 whole entry): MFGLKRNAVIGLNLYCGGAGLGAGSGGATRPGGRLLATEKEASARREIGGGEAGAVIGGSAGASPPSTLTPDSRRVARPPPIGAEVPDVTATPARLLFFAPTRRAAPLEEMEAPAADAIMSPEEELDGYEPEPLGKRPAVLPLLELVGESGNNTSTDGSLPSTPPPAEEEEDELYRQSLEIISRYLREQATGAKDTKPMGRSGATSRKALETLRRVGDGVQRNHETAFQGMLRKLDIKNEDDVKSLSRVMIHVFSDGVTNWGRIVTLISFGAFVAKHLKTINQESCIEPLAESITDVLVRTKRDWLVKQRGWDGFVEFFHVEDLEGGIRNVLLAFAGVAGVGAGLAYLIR

For `CCCCn1nccc1COc1ccccc1CC(Oc1ncnc2sc(-c3ccc(Cl)nc3)c(-c3ccc(OCCN4CCN(C)CC4)c(Cl)c3C)c12)C(=O)O` [Example 606, (2R)-3-{2-[(1-butyl-1H-pyrazol-5-yl)methoxy]phenyl}-2-{[(5Sa)-5-{3-chloro-2-methyl-4-[2-(4-methylpiperazin-1-yl)ethoxy]phenyl}-6-(6-chloropyridin-3-yl)thieno[2,3-d]pyrimidin-4-yl]oxy}propanoic acid], the IC50 in assay [1] (Homo sapiens, NCI-H929, 48 h) is 0.064 µM; in assay [2] it was 4e-09 M.

Turning to `CCCCn1nccc1COc1ccccc1CC(Oc1ncnc2sc(-c3ccc(F)nc3)c(-c3ccc(OCCN4CCN(C)CC4)c(Cl)c3C)c12)C(=O)O` [Example 607, (2R)-3-{2-[(1-butyl-1H-pyrazol-5-yl)methoxy]phenyl}-2-{[(5Sa)-5-{3-chloro-2-methyl-4-[2-(4-methylpiperazin-1-yl)ethoxy]phenyl}-6-(6-fluoropyridin-3-yl)thieno[2,3-d]pyrimidin-4-yl]oxy}propanoic acid], the IC50 in assay [1] (Homo sapiens, NCI-H929, 48 h) worked out at 0.04 µM; in assay [2], 3.5e-09 M.

In the case of `CCCCn1nccc1COc1ccccc1CC(Oc1ncnc2sc(-c3ccc(OC)nc3)c(-c3ccc(OCCN4CCN(C)CC4)c(Cl)c3C)c12)C(=O)O` [Example 608, (2R)-3-{2-[(1-butyl-1H-pyrazol-5-yl)methoxy]phenyl}-2-{[(5Sa)-5-{3-chloro-2-methyl-4-[2-(4-methylpiperazin-1-yl)ethoxy]phenyl}-6-(6-methoxypyridin-3-yl)thieno[2,3-d]pyrimidin-4-yl]oxy}propanoic acid], the IC50 is 0.021 µM in assay [1] (Homo sapiens, NCI-H929, 48 h) and 4.2e-09 M in assay [2].

With `CCCCn1nccc1COc1ccccc1CC(Oc1ncnc2sc(-c3cccnc3)c(-c3ccc(OCCN4CCN(C)CC4)c(Cl)c3C)c12)C(=O)O` [Example 609, (2R)-3-{2-[(1-butyl-1H-pyrazol-5-yl)methoxy]phenyl}-2-{[(5Sa)-5-{3-chloro-2-methyl-4-[2-(4-methylpiperazin-1-yl)ethoxy]phenyl}-6-(pyridin-3-yl)thieno[2,3-d]pyrimidin-4-yl]oxy}propanoic acid], the IC50 in assay [1] (Homo sapiens, NCI-H929, 48 h) is 0.063 µM; in assay [2] it was 3.5e-09 M.

In the case of `CCCCn1nccc1COc1ccccc1CC(Oc1ncnc2sc(-c3ccn(C)n3)c(-c3ccc(OCCN4CCN(C)CC4)c(Cl)c3C)c12)C(=O)O` [Example 610, (2R)-3-{2-[(1-butyl-1H-pyrazol-5-yl)methoxy]phenyl}-2-{[(5Sa)-5-{3-chloro-2-methyl-4-[2-(4-methylpiperazin-1-yl)ethoxy]phenyl}-6-(1-methyl-1H-pyrazol-3-yl)thieno[2,3-d]pyrimidin-4-yl]oxy}propanoic acid], the IC50 in assay [1] (Homo sapiens, NCI-H929, 48 h) was 0.091 µM; in assay [2], 3.5e-09 M.

Turning to `C#Cc1sc2ncnc(OC(Cc3ccccc3OCc3ccnn3CCCC)C(=O)O)c2c1-c1ccc(OCCN2CCN(C)CC2)c(Cl)c1C` [Example 611, (2R)-3-{2-[(1-butyl-1H-pyrazol-5-yl)methoxy]phenyl}-2-[((5Sa)-5-{3-chloro-2-methyl-4-[2-(4-methylpiperazin-1-yl)ethoxy]phenyl}-6-ethynylthieno[2,3-d]pyrimidin-4-yl)oxy]propanoic acid], the IC50 in assay [1] (Homo sapiens, NCI-H929, 48 h) was 0.23 µM; in assay [2], 3.9e-09 M.

As to `CCC#Cc1sc2ncnc(OC(Cc3ccccc3OCc3ccnn3CCCC)C(=O)O)c2c1-c1ccc(OCCN2CCN(C)CC2)c(Cl)c1C` [Example 612, (2R)-3-{2-[(1-butyl-1H-pyrazol-5-yl)methoxy]phenyl}-2-{[6-(but-1-yn-1-yl)-(5Sa)-5-{3-chloro-2-methyl-4-[2-(4-methylpiperazin-1-yl)ethoxy]phenyl}thieno[2,3-d]pyrimidin-4-yl]oxy}propanoic acid], the half-maximal inhibitory concentration (IC50) in assay [1] (Homo sapiens, NCI-H929, 48 h) came out at 0.02 µM; in assay [2] it was 3.5e-09 M.

Turning to `CCCCn1nccc1COc1ccccc1CC(Oc1ncnc2sc(C#CCOC)c(-c3ccc(OCCN4CCN(C)CC4)c(Cl)c3C)c12)C(=O)O` [Example 613, (2R)-3-{2-[(1-butyl-1H-pyrazol-5-yl)methoxy]phenyl}-2-{[(5Sa)-5-{3-chloro-2-methyl-4-[2-(4-methylpiperazin-1-yl)ethoxy]phenyl}-6-(3-methoxyprop-1-yn-1-yl)thieno[2,3-d]pyrimidin-4-yl]oxy}propanoic acid], the IC50 in assay [1] (Homo sapiens, NCI-H929, 48 h) was 0.158 µM; in assay [2] it was 3.5e-09 M.

`CCCCn1nccc1COc1ccccc1CC(Oc1ncnc2sc(C(F)(F)F)c(-c3ccc(OCCN4CCN(C)CC4)c(Cl)c3C)c12)C(=O)O` [Example 615, (2R)-3-{2-[(1-butyl-1H-pyrazol-5-yl)methoxy]phenyl}-2-{[(5Sa)-5-{3-chloro-2-methyl-4-[2-(4-methylpiperazin-1-yl)ethoxy]phenyl}-6-(trifluoromethyl)thieno[2,3-d]pyrimidin-4-yl]oxy}propanoic acid]: the half-maximal inhibitory concentration (IC50) was 0.292 µM in assay [1] (Homo sapiens, NCI-H929, 48 h) and 8e-10 M in assay [2].

Turning to `CCCCn1nccc1COc1ccccc1CC(Oc1ncnc2sc(-c3ccc(OCCN4CCOCC4)cc3)c(-c3ccc(OCCN4CCN(C)CC4)c(Cl)c3C)c12)C(=O)O` [Example 616, (2R)-3-{2-[(1-butyl-1H-pyrazol-5-yl)methoxy]phenyl}-2-[((5Sa)-5-{3-chloro-2-methyl-4-[2-(4-methylpiperazin-1-yl)ethoxy]phenyl}-6-{4-[2-(morpholin-4-yl)ethoxy]phenyl}thieno[2,3-d]pyrimidin-4-yl)oxy]propanoic acid], the IC50 stood at 0.07 µM in assay [1] (Homo sapiens, NCI-H929, 48 h) and 4e-09 M in assay [2].

Regarding `CCCCn1nccc1COc1ccccc1CC(Oc1ncnc2sc(CCCOC)c(-c3ccc(OCCN4CCN(C)CC4)c(Cl)c3C)c12)C(=O)O` [Example 617, (2R)-3-{2-[(1-butyl-1H-pyrazol-5-yl)methoxy]phenyl}-2-{[(5Sa)-5-{3-chloro-2-methyl-4-[2-(4-methylpiperazin-1-yl)ethoxy]phenyl}-6-(3-methoxypropyl)thieno[2,3-d]pyrimidin-4-yl]oxy}propanoic acid], the IC50 in assay [1] (Homo sapiens, NCI-H929, 48 h) was determined as 0.277 µM; in assay [2], 5.4e-09 M.

On to `CCCCn1nccc1COc1ccccc1CC(Oc1ncnc2sc(-c3ccc(N4CCOCC4)nc3)c(-c3ccc(OCCN4CCN(C)CC4)c(Cl)c3C)c12)C(=O)O` [Example 619, (2R)-3-{2-[(1-butyl-1H-pyrazol-5-yl)methoxy]phenyl}-2-[((5Sa)-5-{3-chloro-2-methyl-4-[2-(4-methylpiperazin-1-yl)ethoxy]phenyl}-6-[6-(morpholin-4-yl)pyridin-3-yl]thieno[2,3-d]pyrimidin-4-yl)oxy]propanoic acid], for which the IC50 in assay [1] (Homo sapiens, NCI-H929, 48 h) turned out to be 0.336 µM; in assay [2], 7e-09 M.

Consider `CCCCn1nccc1COc1ccccc1CC(Oc1ncnc2sc(-c3ccc(NCCOC)nc3)c(-c3ccc(OCCN4CCN(C)CC4)c(Cl)c3C)c12)C(=O)O` [Example 620, (2R)-3-{2-[(1-butyl-1H-pyrazol-5-yl)methoxy]phenyl}-2-[((5Sa)-5-{3-chloro-2-methyl-4-[2-(4-methylpiperazin-1-yl)ethoxy]phenyl}-6-{6-[(2-methoxyethyl)amino]pyridin-3-yl}thieno[2,3-d]pyrimidin-4-yl)oxy]propanoic acid], for which the IC50 in assay [1] (Homo sapiens, NCI-H929, 48 h) was 0.532 µM; in assay [2], 5.9e-09 M.

`CCCCn1nccc1COc1ccccc1CC(Oc1ncnc2sc(-c3ccc(OCCN4CCOCC4)nc3)c(-c3ccc(OCCN4CCN(C)CC4)c(Cl)c3C)c12)C(=O)O` [Example 621, (2R)-3-{2-[(1-butyl-1H-pyrazol-5-yl)methoxy]phenyl}-2-[((5Sa)-5-{3-chloro-2-methyl-4-[2-(4-methylpiperazin-1-yl)ethoxy]phenyl}-6-{6-[2-(morpholin-4-yl)ethoxy]pyridin-3-yl}thieno[2,3-d]pyrimidin-4-yl)oxy]propanoic acid]: the IC50 in assay [1] (Homo sapiens, NCI-H929, 48 h) is 0.095 µM; in assay [2] it was 5.3e-09 M.

With `CCCCn1nccc1COc1ccccc1CC(Oc1ncnc2sc(-c3ccc(OCCOC)nc3)c(-c3ccc(OCCN4CCN(C)CC4)c(Cl)c3C)c12)C(=O)O` [Example 622, (2R)-3-{2-[(1-butyl-1H-pyrazol-5-yl)methoxy]phenyl}-2-[((5Sa)-5-{3-chloro-2-methyl-4-[2-(4-methylpiperazin-1-yl)ethoxy]phenyl}-6-[6-(2-methoxyethoxy)pyridin-3-yl]thieno[2,3-d]pyrimidin-4-yl)oxy]propanoic acid], the IC50 came out at 0.109 µM in assay [1] (Homo sapiens, NCI-H929, 48 h) and 1.1e-08 M in assay [2].

As to `CCOC(=O)[C@@H](Cc1ccccc1OCc1ccnc(OC)n1)Oc1ncnc2sc(-c3ccc(F)o3)c(-c3ccc(OCCN4CCN(C)CC4)c(Cl)c3C)c12` [Example 625, ethyl (2R)-2-{[(5Sa)-5-{3-chloro-2-methyl-4-[2-(4-methylpiperazin-1-yl)ethoxy]phenyl}-6-(5-fluorofuran-2-yl)thieno[2,3-d]pyrimidin-4-yl]oxy}-3-{2-[(2-methoxypyrimidin-4-yl)methoxy]phenyl}propanoate], in assay [1], the IC50 came to 0.62 µM. In addition, in assay [2] (partial inhibitors, @ 10 uM test compound), the “percentage fluorescence polarisation inhibition, Mcl-1 FP” value is on record as 74.85% @ 10 uM.

On to `COc1ccccc1CC(Oc1ncnc2sc(-c3ccc(F)cc3)c(-c3ccc(OCCN4CCN(C)CC4)c(Cl)c3C)c12)C(=O)OCOC(=O)C(C)(C)C` [Example 643, {[(2R)-2-{[(5Sa)-5-{3-chloro-2-methyl-4-[2-(4-methylpiperazin-1-yl)ethoxy]phenyl}-6-(4-fluorophenyl)thieno[2,3-d]pyrimidin-4-yl]oxy}-3-(2-methoxyphenyl)propanoyl]oxy}methyl 2,2-dimethylpropanoate], for which the IC50 turned out to be 0.303 µM in assay [1] (Homo sapiens, NCI-H929, 48 h) and 6.6e-07 M in assay [2].

The values are drawn from patent US9670227B2, “Thienopyrimidine derivatives, a process for their preparation and pharmaceutical compositions containing them” (LES LABORATOIRES SERVIER, priority 2013, dated 2017).
